Results on 18 compounds are retold here after patent US20170349593A1, “BTK INHIBITORS” (MERCK SHARP & DOHME CORP., priority 2014, published 2017).

SMILES strings stand for the structures.

Assay [1] has as its target T1, BTK enzyme (recombinant full-length BTK, hBTK) (Homo sapiens, UniProt Q06187).
T1 construct: recombinant protein from baculovirus-transfected S 19 cells: full-length BTK, 6 HIS-tag cleaved; 6 HIS-tag (cleaved yes); made in house
The assay can be described thus: Btk enzyme activity assay (LANCE TR-FRET). In kind it is biochemical. To be noted: 50 pM hBTK, 25 μM ATP, 60 minute compound and enzyme incubation, concentration range 1 μM to 0.017 nM, read-out: BTK binding IC50. (In general: Time-resolved FRET reads energy transfer from a long-lived donor to a nearby acceptor.)

Assay [2] deals with adenosine uptake into HeLa cells. The assay can be described thus: [3H]Adenosine uptake assay. In kind it is cell-based. To be noted: Homo sapiens; accumulation of [3H]adenosine into HeLa cells; concentration range 10 μM to 0.032 nM; read-out: ADU inhibition IC50. The procedure: Compounds are also screened in an adenosine uptake functional cellular assay using the protocol described below:
Adenosine uptake activity was determined by monitoring the accumulation of tritiated adenosine into HeLa cells (ATCC catalog #CCL-2) using a PMT-based radiometric detection instrument. In this assay, the potency (IC50) of each compound was determined from a ten point (1:3 serial dilution; final compound concentration range in assay from 10 μM to 0.032 nM) titration curve using the following outlined procedure. To each well of a 96-well CytoStar-T scintillating microplate (Perkin Elmer Catalog #RPNQ0163), 25 000 HeLa cells in 100 μL of growth medium comprising: Minimum Essential Media (Life Technologies Catalog #11095-080)+10% (v/v) foetal bovine serum (FBS; Sigma Aldrich Catalog #F2442) was added. These cells were incubated overnight at 37° C. in a humidified atmosphere with 5% (v/v) CO2. After this time the growth medium was removed and replaced with 40 μL assay medium comprising: Hanks balanced salts solution (HBSS; Thermo Fisher Catalog # SH30268.01)+5% (v/v) FBS. Compound stock solutions in DMSO were diluted in assay medium to 2.5× final compound concentration maintaining a constant DMSO concentration of 0.25% (v/v). 40 μL of compound in assay medium was dispensed into individual wells of the Cytostar-T plates and the plates were incubated for 30 minutes under ambient laboratory conditions. Following this incubation, 20 μL of 500 nM [^3H] adenosine (American Radiolabeled Chemicals Inc. Catalog #ART0287) in assay medium was added and incubated for a further 60 minutes under ambient laboratory conditions. The amount of radiolabel accumulation was then determined using a Perkin Elmer Topcount NXT microplate reader. In brief, HeLa cells adhere to the bottom of the Cytostar-T plate, uptake of [^3H]adenosine into these cells brings the radiolabel into sufficient proximity to excite the scintillant in the base of the plates. These events are captured by single PMT, time-resolved coincidence counting. IC50 values were determined by 4 parameter robust fit of counts per second values vs. (Log10)) compound concentrations.

T1 sequence (Q06187 whole entry): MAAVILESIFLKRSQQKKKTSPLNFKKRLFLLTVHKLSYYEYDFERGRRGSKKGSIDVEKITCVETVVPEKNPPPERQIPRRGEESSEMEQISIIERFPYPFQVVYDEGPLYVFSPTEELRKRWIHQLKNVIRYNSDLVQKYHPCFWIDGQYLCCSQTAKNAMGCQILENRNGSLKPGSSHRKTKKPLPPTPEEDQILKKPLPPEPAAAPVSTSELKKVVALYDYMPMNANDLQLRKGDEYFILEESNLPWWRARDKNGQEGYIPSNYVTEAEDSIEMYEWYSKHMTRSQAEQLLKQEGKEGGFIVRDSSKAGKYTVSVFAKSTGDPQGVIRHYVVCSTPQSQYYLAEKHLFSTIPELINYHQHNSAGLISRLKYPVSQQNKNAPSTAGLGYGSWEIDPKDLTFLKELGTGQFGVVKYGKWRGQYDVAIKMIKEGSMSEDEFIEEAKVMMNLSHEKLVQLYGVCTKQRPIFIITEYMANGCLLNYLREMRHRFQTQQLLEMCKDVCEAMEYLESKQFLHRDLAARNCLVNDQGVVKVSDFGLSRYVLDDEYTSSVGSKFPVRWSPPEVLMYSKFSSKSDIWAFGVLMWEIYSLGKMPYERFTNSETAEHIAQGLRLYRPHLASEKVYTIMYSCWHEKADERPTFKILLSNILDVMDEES

`Nc1nccn2c([C@H]3CN(C4COC4)[C@H](CO)CO3)nc(-c3ccc(C(=O)Nc4cc(C(F)(F)F)ccn4)cc3F)c12` [Example 66, 4-{8-amino-3-[(2R,5R)-5-(hydroxymethyl)-4-oxetan-3-ylmorpholin-2-yl]imidazo[1,5-a]pyrazin-1-yl}-3-fluoro-N-[4-(trifluoromethyl)pyridin-2-yl]benzamide]: the IC50 (commonly the point on the concentration scale where inhibition reaches its midpoint) in assay [1] stood at 1.23 nM; in assay [2], 24.6 nM.
Take `COc1cc(C(=O)Nc2cc(C(F)(F)F)ccn2)ccc1-c1nc([C@H]2CN(C3CCOCC3)[C@@H](C)CO2)n2c(Cl)cnc(N)c12` [Example 46, 4-{8-amino-5-chloro-3-[(2R,5S)-5-methyl-4-(tetrahydro-2H-pyran-4-yl)morpholin-2-yl]imidazo[1,5-a]pyrazin-1-yl}-3-methoxy-N-[4-(trifluoromethyl)pyridin-2-yl]benzamide]: the values for the concentration for half-maximal inhibition (IC50) in assay [1] and in assay [2] were 1.94 nM and 2160 nM, respectively.
For the compound `COc1cc(C(=O)Nc2cc(C(F)(F)F)ccn2)ccc1-c1nc([C@H]2CN(C3CN(Cc4ccccc4F)C3)[C@@H](C)CO2)n2ccnc(N)c12` [Example 32, 4-(8-amino-3-{(2R,5S)-4-[1-(2-fluorobenzyl)azetidin-3-yl]-5-methylmorpholin-2-yl}imidazo[1,5-a]pyrazin-1-yl)-3-methoxy-N-[4-(trifluoromethyl)pyridin-2-yl]benzamide], the figures for the IC50 in assay [1] and in assay [2] were 6.41 nM and 1070 nM, respectively.
With `CCN1C[C@H](c2nc(-c3ccc(C(=O)Nc4cc(C(F)(F)F)ccn4)cc3OC)c3c(N)ncc(Cl)n23)OC[C@@H]1C` [Example 26, 4-{8-amino-5-chloro-3-[(2R,5S)-4-ethyl-5-methylmorpholin-2-yl]imidazo[1,5-a]pyrazin-1-yl}-3-methoxy-N-[4-(trifluoromethyl)pyridin-2-yl]benzamide], the IC50 in assay [1] is 3.62 nM; in assay [2] it was 1020 nM.
On to `CCOc1cc(C(=O)Nc2cc(C(F)(F)F)ccn2)cc(F)c1-c1nc([C@H]2CN(C(=O)[C@H](C)O)[C@@H](C)CO2)n2c(Cl)cnc(N)c12` [Example 101, 4-(8-amino-5-chloro-3-{(2R,5S)-4-[(2S)-2-hydroxypropanoyl]-5-methylmorpholin-2-yl}imidazo[1,5-a]pyrazin-1-yl)-3-ethoxy-5-fluoro-N-[4-(trifluoromethyl)pyridin-2-yl]benzamide], for which the results for the IC50 in assay [1] and in assay [2] were 0.665 nM and 2720 nM, respectively.
As for `Nc1nccn2c([C@H]3CN(C4CCOCC4)[C@H](CO)CO3)nc(-c3ccc(C(=O)Nc4cc(C(F)(F)F)ccn4)cc3F)c12` [Example 65, 4-{8-amino-3-[(2R,5R)-5-(hydroxymethyl)-4-(tetrahydro-2H-pyran-4-yl)morpholin-2-yl]imidazo[1,5-a]pyrazin-1-yl}-3-fluoro-N-[4-(trifluoromethyl)pyridin-2-yl]benzamide], the IC50 in assay [1] worked out at 6.78 nM; in assay [2], 136 nM.
In the case of `COc1cc(C(=O)Nc2cc(C(F)(F)F)ccn2)ccc1-c1nc([C@H]2CN(C3CN(Cc4c(F)cccc4F)C3)[C@@H](C)CO2)n2ccnc(N)c12` [Example 30, 4-(8-amino-3-{(2R,5S)-4-[1-(2,6-difluorobenzyl)azetidin-3-yl]-5-methylmorpholin-2-yl}imidazo[1,5-a]pyrazin-1-yl)-3-methoxy-N-[4-(trifluoromethyl)pyridin-2-yl]benzamide], the IC50 in assay [1] was determined as 10.7 nM; in assay [2] it was 1040 nM.
On to `CC(C)C(=O)N1C[C@H](c2nc(-c3ccc(C(=O)Nc4cc(C(F)(F)F)ccn4)cc3)c3c(N)nccn23)OC[C@@H]1C` [Example 82, 4-{8-amino-3-[(2R,5S)-5-methyl-4-(2-methylpropanoyl)morpholin-2-yl]imidazo[1,5-a]pyrazin-1-yl}-N-[4-(trifluoromethyl)pyridin-2-yl]benzamide], for which the IC50 amounted to 0.546 nM in assay [1] and 262 nM in assay [2].
Regarding `COc1cc(C(=O)Nc2cc(C(F)(F)F)ccn2)ccc1-c1nc([C@H]2CN(C(=O)[C@H](C)O)[C@@H](C)CO2)n2c(Cl)cnc(N)c12` [Example 38, 4-(8-amino-5-chloro-3-{(2R,5S)-4-[(2S)-2-hydroxypropanoyl]-5-methylmorpholin-2-yl}imidazo[1,5-a]pyrazin-1-yl)-3-methoxy-N-[4-(trifluoromethyl)pyridin-2-yl]benzamide], the figures for the IC50 in assay [1] and in assay [2] were 2.25 nM and 2800 nM, respectively.
With `CCOc1cc(C(=O)Nc2cc(C(F)(F)F)ccn2)ccc1-c1nc([C@@H]2CC[C@H](C(F)(F)F)N(C(=O)C3CC3)C2)n2ccnc(N)c12` [Example 1, 4-{8-amino-3-[(3R,6R)-1-(cyclopropylcarbonyl)-6-(trifluoromethyl)piperidin-3-yl]imidazo[1,5-a]pyrazin-1-yl}-3-ethoxy-N-[4-(trifluoromethyl)pyridin-2-yl]benzamide], the results for the IC50 in assay [1] and in assay [2] were 347 nM and 918 nM, respectively.
`C[C@H](O)C(=O)N1C[C@H](c2nc(-c3ccc(C(=O)Nc4cc(C5CC5)ccn4)cc3)c3c(N)nccn23)CC[C@@H]1C` [Example 91, 4-(8-amino-3-{(3R,6S)-1-[(2S)-2-hydroxypropanoyl]-6-methylpiperidin-3-yl}imidazo[1,5-a]pyrazin-1-yl)-N-(4-cyclopropylpyridin-2-yl)benzamide]: the IC50 in assay [1] stood at 0.295 nM; in assay [2] it was 40.1 nM.
As to `CCOc1cc(C(=O)Nc2cc(C(F)(F)F)ccn2)ccc1-c1nc([C@H]2CN(CC)[C@@H](C)CO2)n2c(Cl)cnc(N)c12` [Example 24, 4-{8-amino-5-chloro-3-[(2R,5S)-4-ethyl-5-methylmorpholin-2-yl]imidazo[1,5-a]pyrazin-1-yl}-3-ethoxy-N-[4-(trifluoromethyl)pyridin-2-yl]benzamide], the values for the IC50 in assay [1] and in assay [2] were 1.54 nM and 2350 nM, respectively.
Consider `CC(=O)N1C[C@H](c2nc(-c3ccc(C(=O)Nc4cc(C(F)(F)F)ccn4)cc3)c3c(N)nccn23)OC[C@@H]1C` [Example 83, 4-{3-[(2R,5S)-4-acetyl-5-methylmorpholin-2-yl]-8-aminoimidazo[1,5-a]pyrazin-1-yl}-N-[4-(trifluoromethyl)pyridin-2-yl]benzamide], for which the figures for the IC50 in assay [1] and in assay [2] were 0.363 nM and 188 nM, respectively.
For `C[C@H]1CC[C@@H](c2nc(-c3ccc(C(=O)Nc4cc(C#N)ccn4)cc3)c3c(N)nccn23)CN1C(=O)C1CC1` [Example 89, 4-{8-amino-3-[(3R,6S)-1-(cyclopropylcarbonyl)-6-methylpiperidin-3-yl]imidazo[1,5-a]pyrazin-1-yl}-N-(4-cyanopyridin-2-yl)benzamide] the same measures were 0.297 nM and 47.5 nM.
Regarding `C[C@H]1CO[C@@H](c2nc(-c3ccc(C(=O)Nc4cc(C(F)(F)F)ccn4)cc3F)c3c(N)nccn23)CN1C1CCOCC1` [Example 75, 4-{8-amino-3-[(2R,5S)-5-methyl-4-(tetrahydro-2H-pyran-4-yl)morpholin-2-yl]imidazo[1,5-a]pyrazin-1-yl}-3-fluoro-N-[4-(trifluoromethyl)pyridin-2-yl]benzamide], the IC50 is 0.329 nM in assay [1] and 350 nM in assay [2].
With `C[C@H]1CO[C@@H](c2nc(-c3ccc(C(=O)Nc4cc(C(F)(F)F)ccn4)cc3)c3c(N)nccn23)CN1C(=O)C1(C)CC1` [Example 81, 4-(8-amino-3-{(2R,5S)-5-methyl-4-[(1-methylcyclopropyl)carbonyl]morpholin-2-yl}imidazo[1,5-a]pyrazin-1-yl)-N-[4-(trifluoromethyl)pyridin-2-yl]benzamide], the results for the IC50 in assay [1] and in assay [2] were 0.51 nM and 107 nM, respectively.
With `Cn1cc(CN2C[C@H](c3nc(-c4ccc(C(=O)Nc5cc(C(F)(F)F)ccn5)cc4F)c4c(N)nccn34)OC[C@H]2CO)cn1` [Example 64, 4-(8-amino-3-{(2R,5R)-5-(hydroxymethyl)-4-[(1-methyl-1H-pyrazol-4-yl)methyl]morpholin-2-yl}imidazo[1,5-a]pyrazin-1-yl)-3-fluoro-N-[4-(trifluoromethyl)pyridin-2-yl]benzamide], the IC50 in assay [1] is 4.33 nM; in assay [2] it was 260 nM.
The corresponding values for `C=Cc1cnc(N)c2c(-c3ccc(C(=O)Nc4cc(C(F)(F)F)ccn4)cc3OC)nc([C@H]3CN(C(=O)C4CC4)[C@@H](C)CO3)n12` [Example 10, 4-{8-amino-3-[(2R,5S)-4-(cyclopropylcarbonyl)-5-methylmorpholin-2-yl]-5-ethenylimidazo[1,5-a]pyrazin-1-yl}-3-methoxy-N-[4-(trifluoromethyl)pyridin-2-yl]benzamide] are 0.528 nM and 1200 nM.
